According to patent publication EP1673354B1, “ARYLINDENOPYRIDINES AND ARYLINDENOPYRIMIDINES AND THEIR USE AS ADENOSINE A2A RECEPTOR ANTAGONISTS” (Ortho-McNeil Pharmaceutical, Inc., priority 2003, dated 2005):

Legend:
Adenosine A1 receptor = molecular target: T1, Adenosine A1 receptor (Homo sapiens, UniProt P30542); assay: A1 antagonist function (no method described); type: cell-based
T1 sequence (P30542 1-326): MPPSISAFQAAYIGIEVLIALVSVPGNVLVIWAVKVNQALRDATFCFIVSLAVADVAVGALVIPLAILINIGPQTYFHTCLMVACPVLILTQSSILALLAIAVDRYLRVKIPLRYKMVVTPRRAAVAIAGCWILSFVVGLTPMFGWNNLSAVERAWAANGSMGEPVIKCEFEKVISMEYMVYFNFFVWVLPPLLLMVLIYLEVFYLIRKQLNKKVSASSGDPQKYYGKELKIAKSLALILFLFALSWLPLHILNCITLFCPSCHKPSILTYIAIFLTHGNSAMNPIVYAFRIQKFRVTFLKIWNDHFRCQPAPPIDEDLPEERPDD

C57bl/6 mice = assay: Haloperidol-induced catalepsy study in C57bl/6 mice; type: in vivo; settings: orally dosed at 10 mg/kg; haloperidol 1.5 mg/kg s.c.; test 1 hour after oral dose
Description: Haloperidol-induced catalepsy study in C57bl/6 mice
Mature male C57bl/6 mice (9-12 week old from ACE) were housed two per cage in a rodent room. Room temperature was maintained at 64-79 degrees and humidity at 30-70% and room lighting at 12 hrs light/12 hrs dark cycle. On the study day, mice were transferred to the study room. The mice were injected subcutaneously with haloperidol (Sigma H1512, 1.0 mg/ml made in 0.3% tartaric acid, then diluted to 0.2 mg/ml with saline) or vehicle at 1.5 mg/kg, 7.5ml/kg. The mice were then placed in their home cages with access to water and food. 30 minutes later, the mice were orally dosed with vehicle (0.3% Tween 80 in saline) or compounds at 10 mg/kg, 10 ml/kg (compounds, 1mg/ml, made in 0.3% Tween 80 in saline, sonicated to obtain a uniform suspension). The mice were then placed in their home cages with access to water and food. 1 hour after oral dose, the catalepsy test was performed. A vertical metal-wire grid (1.0 cm squares) was used for the test. The mice were placed on the grid and given a few seconds to settle down and their immobility time was recorded until the mice moved their back paw(s). The mice were removed gently from the grid and put back on the grid and their immobility time was counted again. The measurement was repeated three times. The average of three measurements was used for data analysis.

[1] = molecular target: T2, human A2a adenosine receptor (Homo sapiens, UniProt P29274); assay: Ligand binding assay for adenosine A2a receptor ([3H]CGS21680, HEK293 plasma membrane); settings: radioligand [3H]CGS21680, HEK293 membranes, room temperature 2 hours; read-out: Ki (nM) A2a binding
T2 construct: purchased PerkinElmer RB-HA2a; host or cells: HEK293 cell plasma membrane
Description: Ligand Binding Assay for Adenosine A2a Receptor
Ligand binding assay of adenosine A2a receptor was performed using plasma membrane of HEK293 cells containing human A2a adenosine receptor (PerkinElmer, RB-HA2a) and radioligand [^3H]CGS21680 (PerkinElmer, NET1021). Assay was set up in 96-well polypropylene plate in total volume of 200 µl by sequentially adding 20 µL1:20 diluted membrane, 130 µLassay buffer (50 mM Tris·HCl, pH7.4 10 mM MgCl2, 1 mM EDTA) containing [^3H] […] Nonspecific binding was determined by […] NECA. Reaction was carried out at room temperature for 2 hours before filtering through 96-well GF/C filter plate pre-soaked in 50 mM Tris·HCl, pH7.4 containing 0.3% polyethylenimine. Plates were then washed 5 times with cold 50 mM Tris·HCl, pH7.4, dried and sealed at the bottom. Microscintillation fluid 30 µl was added to each well and the top sealed. Plates were counted on Packard Topcount for [^3H]. Data was analyzed in Microsoft Excel and GraphPad Prism programs.

[2] = molecular target: T3, human adenosine A2a receptors (Homo sapiens, UniProt P29274); assay: Adenosine A2a receptor functional assay, antagonist mode (cAMP-inducible beta-galactosidase reporter, 50 nM NECA); type: cell-based; settings: CHO-K1 cells, read-out: Ki (nM) A2a antagonist function
T3 construct: expressed in transfected cells; host or cells: CHO-K1 cells with cAMP-inducible beta-galactosidase reporter gene
Description: Adenosine A2a Receptor Functional Assay
CHO-K1 cells overexpressing human adenosine A2a receptors and containing cAMP-inducible beta-galactosidase reporter gene were seeded at 40-50K/well into 96-well tissue culture plates and cultured for two days. On assay day, cells were washed once with 200 µL assay medium (F-12 nutrient mixture/0.1 % BSA). For agonist assay, adenosine A2a receptor agonist NECA was subsequently added and cell incubated at 37°C, 5% CO2 for 5 hrs before stopping reaction. In the case of antagonist assay, cells were incubated with antagonists for 5 minutes at R.T. followed by addition of 50 nM NECA. Cells were then incubated at 37°C, 5% CO2 for 5 hrs before stopping experiments by washing cells with PBS twice. 50 µL 1X lysis buffer (Promega, 5X stock solution, needs to be diluted to 1X before use) was added to each well and plates frozen at -20°C. For β-galactosidase enzyme colorimetric assay, plates were thawed out at room temperature and 50 µL 2X assay buffer (Promega) added to each well. Color was allowed to develop at 37°C for 1 h or until reasonable signal appeared. Reaction was then stopped with 150 µL 1 M sodium carbonate. […] Data was analyzed in Microsoft Excel and GraphPad Prism programs.

T2 sequence (P29274 whole entry): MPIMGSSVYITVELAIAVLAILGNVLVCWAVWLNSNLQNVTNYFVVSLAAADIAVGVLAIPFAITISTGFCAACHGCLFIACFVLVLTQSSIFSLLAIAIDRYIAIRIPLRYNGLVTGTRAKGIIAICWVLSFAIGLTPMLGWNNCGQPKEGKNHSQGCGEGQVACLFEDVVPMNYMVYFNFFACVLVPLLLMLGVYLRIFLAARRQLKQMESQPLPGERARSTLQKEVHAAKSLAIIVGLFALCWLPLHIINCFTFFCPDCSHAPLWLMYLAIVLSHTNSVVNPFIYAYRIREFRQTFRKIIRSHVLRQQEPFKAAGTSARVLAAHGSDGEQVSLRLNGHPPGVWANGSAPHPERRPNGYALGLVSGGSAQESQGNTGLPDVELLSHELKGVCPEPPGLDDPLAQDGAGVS
T3 sequence (P29274 whole entry): as above

| SMILES | Ki (Adenosine A1 receptor) [nM] | inhibition of haloperidol-induced catalepsy (C57bl/6 mice) [%] | Ki [1] [nM] | Ki [2] [nM] |
| --- | --- | --- | --- | --- |
| Nc1nc(-c2ccco2)c2c(n1)-c1ccccc1C2=O [Compound 3, 2-amino-4-furan-2-yl-indeno[1,2-d]pyrimidin-5-one] | 0.288 | 90 | – | – |
| CCN(CC)Cc1cccc2c1C(=O)c1c(-c3ccccc3)nc(N)nc1-2 [Compound 52] | 107 | – | 94.4 | 18.3 |
| Nc1nc(-c2ccccc2)c2c(n1)-c1cccc(CN3CCCCC3)c1C2=O [Compound 53] | 40.8 | – | 64.2 | 14.2 |
| COC(=O)C1CCCCN1Cc1cccc2c1C(=O)c1c(-c3ccccc3)nc(N)nc1-2 (stereo not drawn) [Compound 54] | 19.6 | – | 40.8 | 3.19 |
| CCOC(=O)C1CCCN(Cc2cccc3c2C(=O)c2c(-c4ccccc4)nc(N)nc2-3)C1 (stereo not drawn) [Compound 55] | 19.9 | – | 32.8 | 5.84 |
| COC(=O)CN(C)Cc1cccc2c1C(=O)c1c(-c3ccccc3)nc(N)nc1-2 [Compound 56] | 25.8 | – | 25.7 | 6.81 |
| Nc1nc(-c2ccccc2)c2c(n1)-c1cccc(CN3CCCC(CO)C3)c1C2=O (stereo not drawn) [Compound 57] | 39.3 | – | 34 | 15.9 |
| CC(=O)N1CCN(Cc2cccc3c2C(=O)c2c(-c4ccccc4)nc(N)nc2-3)CC1 [Compound 59] | 34.1 | – | 40.8 | 7.94 |
| N#Cc1c(N)nc(-c2ccccc2)c2c1-c1ccccc1C2=O [Compound 64] | 4.61 | – | 13.1 | 0.138 |
| Nc1nc(-c2ccccc2)c2c(c1C(=O)O)-c1ccccc1C2=O [Compound 65] | 163 | – | 575 | 245 |
| N#Cc1c(N)nc(-c2ccoc2)c2c1-c1ccccc1C2=O [Compound 66] | 15.6 | – | 4.21 | 0.069 |
| N#Cc1c(N)nc(-c2cccc(F)c2)c2c1-c1ccccc1C2=O [Compound 67] | 4.37 | – | 13.4 | 0.618 |
| N#Cc1c(N)nc(-c2cccnc2)c2c1-c1ccccc1C2=O [Compound 68] | 34.8 | – | 7.59 | 0.73 |
| Nc1nc(-c2ccco2)c2c(c1C(=O)O)-c1ccccc1C2=O [Compound 69] | > 1000 | – | 2260 | 90.2 |
| CN(C)CCOC(=O)c1c(N)nc(-c2ccco2)c2c1-c1ccccc1C2=O [Compound 70, 9H-indeno[2,1-c]pyridine-4-carboxylic acid, 3-amino-1-furan-2-yl-9-oxo-, 2-dimethylamino-ethyl ester] | 20.1 | 87 | 9.89 | 0.44 |
| N#Cc1c(N)nc(-c2ccc(F)cc2)c2c1-c1ccccc1C2=O [Compound 71] | 2.42 | – | 17.2 | 3.39 |
| N#Cc1c(N)nc(-c2cccs2)c2c1-c1ccccc1C2=O [Compound 72] | 6.24 | – | 12.6 | 2.54 |
| N#Cc1c(N)nc(-c2ccsc2)c2c1-c1ccccc1C2=O [Compound 73] | 9.7 | – | 4.92 | 0.06 |
| COc1cccc(-c2nc(N)c(C#N)c3c2C(=O)c2ccccc2-3)c1 [Compound 74] | 7.28 | – | 14.7 | 5.7 |

| SMILES | Ki (Adenosine A1 receptor) [nM] | inhibition of haloperidol-induced catalepsy (C57bl/6 mice) [%] | Ki [1] [nM] | Ki [2] [nM] |
| --- | --- | --- | --- | --- |
| N#Cc1c(N)nc(-c2ncc[nH]2)c2c1-c1ccccc1C2=O [Compound 75] | 78.3 | – | 23.7 | 1.51 |
| CN(C)CCNC(=O)c1c(N)nc(-c2ccco2)c2c1-c1ccccc1C2=O [Compound 76] | > 500 | – | 33 | 22.1 |
| N#Cc1c(N)nc(-c2ccco2)c2c1-c1c(F)c(F)c(F)c(F)c1C2=O [Compound 79] | > 1000 | – | 8.03 | 12.5 |
| CN1CCN(C(=O)c2c(N)nc(-c3ccco3)c3c2-c2ccccc2C3=O)CC1 [Compound 80] | 56 | – | 69.1 | 15.9 |
| CN(C)CCOC(=O)c1c(N)nc(-c2ccccc2)c2c1-c1ccccc1C2=O [Compound 81, 9H-indeno[2,1-c]pyridine-4-carboxylic acid, 3-amino-1-phenyl-9-oxo-, 2-dimethylamino-ethyl ester] | 33.6 | – | 229 | 29 |
| CN1CCCC1COC(=O)c1c(N)nc(-c2ccco2)c2c1-c1ccccc1C2=O (stereo not drawn) [Compound 82, 9H-indeno[2,1-c]pyridine-4-carboxylic acid, 3-amino-1-furan-2-yl-9-oxo-, 1-methyl-pyrrolidin-2-ylmethyl ester] | 29.6 | – | 20.2 | 1.36 |
| CN1CCN(CCCOC(=O)c2c(N)nc(-c3ccccc3)c3c2-c2ccccc2C3=O)CC1 [Compound 83] | 117 | – | 200 | 74.9 |
| Nc1nc(-c2ccccc2)c2c(c1C(=O)OCCCN1CCOCC1)-c1ccccc1C2=O [Compound 84] | 27.4 | – | 174 | 24.7 |
| CC(C)Cc1nc(N)c(C#N)c2c1C(=O)c1ccccc1-2 [Compound 86] | 39.3 | – | 244 | > 1000 |
| CN(C)CCCOC(=O)c1c(N)nc(-c2ccccc2)c2c1-c1ccccc1C2=O [Compound 87] | > 300 | – | 98.9 | 39.5 |
| Nc1nc(-c2ccccc2)c2c(c1C(=O)OCCN1CCCC1)-c1ccccc1C2=O [Compound 88] | > 300 | – | 130 | 48.9 |
| N#Cc1c(N)nc(-c2ccco2)c2c1-c1ccccc1C2O (stereo not drawn) [Compound 89] | 11.2 | – | 5.85 | 1.12 |
| CN1CCCC1COC(=O)c1c(N)nc(-c2ccccc2)c2c1-c1ccccc1C2=O (stereo not drawn) [Compound 90] | > 300 | – | 202 | 57.7 |
| Nc1nc(-c2ccccc2)c2c(c1C(=O)OCCN1CCOCC1)-c1ccccc1C2=O [Compound 91] | 14.7 | – | 208 | 22.1 |
| CC(COC(=O)c1c(N)nc(-c2ccccc2)c2c1-c1ccccc1C2=O)CN(C)C (stereo not drawn) [Compound 92] | 32.9 | – | 38.8 | 13.9 |
| CN(C)CCOC(=O)c1c(N)nc(-c2ccsc2)c2c1-c1ccccc1C2=O [Compound 93] | 104 | – | 64.1 | 23.6 |
| C=CCCc1nc(N)c(C#N)c2c1C(=O)c1ccccc1-2 [Compound 94] | 36 | – | 49.5 | > 1000 |
| N#Cc1c(N)nc(C2CCCCC2)c2c1-c1ccccc1C2=O [Compound 95] | 110 | – | 338 | > 1000 |
| CC(CN(C)C)OC(=O)c1c(N)nc(-c2ccco2)c2c1-c1ccccc1C2=O (stereo not drawn) [Compound 96] | 52.5 | – | 48.5 | 10.1 |
